Measurements taken from US10946093B2, “Methods of treating cancer using PD-1 axis binding antagonists and MEK inhibitors” (Genentech, Inc., priority 2014, dated 2021).

System: Vemurafenib-progressing melanoma tumors
Assay: Melanoma GEM model B-raf V600E; PTEN fl/fl; TyCreER, Vemurafenib-progressing tumors
Type: in vivo, mouse
Details: 2nd line after first line Vemurafenib; GDC-0973 7.5 mg/kg PO qd; anti-PDL1 10 mg/kg IP three times weekly
Description: A melanoma GEM model B-raf^V600E; PTEN^fl/fl; TyCreER was used.
Animals were enrolled into the study once their tumors reached a size greater than or equal to 400 mm^3.
Prior to beginning treatment, each mouse received a biopsy of a melanoma tumor. After the biopsy, mice were allowed to recover for up to one week prior to receiving treatment. Mice were assigned into initial treatment groups (n=20), and treatment commenced at day 0.
When animals in any group reached ˜2000 mm^3, the tumors were biopsied a second time. After the biopsy procedure, mice recovered for up to one week prior to receiving further therapeutic treatment.
Mice were weighed and tumors measured at least once a week until study termination. Mice received treatment each day until a mean tumor volume of 2500 mm^3 was achieved. Mice were then euthanized, and melanoma tumors were collected for histology and assessing molecular changes. Mice were perfused under anesthesia at euthanasia.
Throughout the study, mice were monitored for clinical appearance (body condition, coat appearance, posture, labored breathing, etc.) at least 2 times a week, with increasing frequency, up to daily, depending on severity of adverse clinical signs observed. Moribund animals were euthanized. Mice with a body condition score <2 were euthanized.

O=C(c1ccc(F)c(F)c1Nc1ccc(I)cc1F)N1CC(O)([C@@H]2CCCCN2)C1 [Cobimetinib, Methanone, [3,4-difluoro-2-[(2-fluoro-4-iodophenyl)amino]phenyl][3-hydroxy-3-(2S)-2-piperidinyl-1-azetidinyl]-]
effect on tumor growth (percent tumor volume change over time, FIG. 1): initial tumor regression, but this response was not sustained and tumor re-growth was observed
